Experimental findings from publication PMC9609273 (Pharmaceuticals, 2022) are described below.

Like-named read-outs stand apart in the source and are kept apart here. Where only a bound is given, the exact number is not on record here.

In assay [1] the test system is katG S315T mutant INH-resistant Mtb clinical isolate. Type of assay: cell-based, Mycobacterium tuberculosis.
Assay [2] relates to inhA promoter mutant INH-resistant Mtb clinical isolate. The assay is classed as cell-based, Mycobacterium tuberculosis.
Assay [3] deals with enoyl acyl carrier protein reductase (InhA) (Mycobacterium tuberculosis, UniProt P9WGR1). The assay is classed as biochemical.
enoyl acyl carrier protein reductase (InhA), sequence (P9WGR1 whole entry, looked up): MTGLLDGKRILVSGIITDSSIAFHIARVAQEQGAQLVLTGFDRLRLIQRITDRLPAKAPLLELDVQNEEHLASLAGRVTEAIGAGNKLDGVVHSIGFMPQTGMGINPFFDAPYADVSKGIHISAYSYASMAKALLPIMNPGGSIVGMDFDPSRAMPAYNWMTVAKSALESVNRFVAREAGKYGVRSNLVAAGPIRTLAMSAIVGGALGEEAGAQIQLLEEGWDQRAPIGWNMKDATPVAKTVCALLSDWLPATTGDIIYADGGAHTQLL

For the molecule “3-((2-Isonicotinoylhydrazono)methyl)phenyl 2,4,6-trimethylbenzenesulfonate [SIH3]”, the “MIC katG +” value in assay [1] is 50 µM. In assay [2], the “MIC inhA +” value is 6.25 µM.
Turning to “3-((2-Isonicotinoylhydrazono)methyl)phenyl 2,5-dichlorobenzenesulfonate [SIH8]”, the “MIC katG +” value in assay [1] worked out at 12.5 µM. Also, the “MIC inhA +” value in assay [2] worked out at 3.12 µM.
“3-((2-Isonicotinoylhydrazono)methyl)phenyl 3-nitrobenzenesulfonate [SIH10]”: the “MIC katG +” value in assay [1] came to 12.5 µM. In assay [3] (50 µM compound), the “% Inhibition of InhA” value is listed as 17%. Also, the “MIC inhA +” value in assay [2] turned out to be 3.12 µM.
On to “3-((2-Isonicotinoylhydrazono)methyl)phenyl 4-(tert-butyl)benzenesulfonate [SIH2]”, for which, in assay [1], the “MIC katG +” value amounted to 25 µM. In assay [3] (50 µM compound), the “% Inhibition of InhA” value is given as 25%. Also, in assay [2], the “MIC inhA +” value stood at 1.56 µM.
With “3-((2-Isonicotinoylhydrazono)methyl)phenyl 4-acetamidobenzenesulfonate [SIH11]”, the “MIC katG +” value in assay [1] was 12.5 µM. For the same molecule, in assay [3] (50 µM compound), the “% Inhibition of InhA” value is 10%. Besides, the “MIC inhA +” value in assay [2] came out at 3.12 µM.
Regarding “3-((2-Isonicotinoylhydrazono)methyl)phenyl 4-bromobenzenesulfonate [SIH5]”, the “MIC katG +” value in assay [1] worked out at 25 µM. The “% Inhibition of InhA” value in assay [3] (50 µM compound) was 33%.
Consider “3-((2-Isonicotinoylhydrazono)methyl)phenyl 4-chlorobenzenesulfonate [SIH6]”, for which the “MIC katG +” value in assay [1] was more than 100 µM. The “% Inhibition of InhA” value in assay [3] (50 µM compound) came out at 23%.
As for “3-((2-Isonicotinoylhydrazono)methyl)phenyl 4-iodobenzenesulfonate [SIH7]”, the “MIC katG +” value in assay [1] is more than 100 µM. Further, the “% Inhibition of InhA” value in assay [3] (50 µM compound) was 41%. For the same molecule, the “MIC inhA +” value in assay [2] stood at 6.25 µM.
Take “3-((2-Isonicotinoylhydrazono)methyl)phenyl 4-methoxybenzenesulfonate [SIH4]”: in assay [1], the “MIC katG +” value turned out to be 6.25 µM. Also, the “% Inhibition of InhA” value in assay [3] (50 µM compound) is recorded as 5%. Besides, the “MIC inhA +” value in assay [2] is 1.56 µM.
For “3-((2-Isonicotinoylhydrazono)methyl)phenyl 4-methylbenzenesulfonate [SIH1]”, the “MIC katG +” value in assay [1] was 50 µM. Also, the “% Inhibition of InhA” value in assay [3] (50 µM compound) was 12%. The “MIC inhA +” value in assay [2] was determined as 1.56 µM.
Consider “3-((2-Isonicotinoylhydrazono)methyl)phenyl 4-nitrobenzenesulfonate [SIH9]”, for which the “MIC katG +” value in assay [1] is 25 µM. The “% Inhibition of InhA” value in assay [3] (50 µM compound) is on record as 8%. The “MIC inhA +” value in assay [2] was found to be 3.12 µM.
For the molecule “3-((2-Isonicotinoylhydrazono)methyl)phenyl [1,1′-biphenyl]-4-sulfonate [SIH12]”, the “MIC katG +” value in assay [1] amounted to 12.5 µM. Also, the “% Inhibition of InhA” value in assay [3] (50 µM compound) is reported as 31%. In addition, the “MIC inhA +” value in assay [2] stood at 3.12 µM.
With “3-((2-Isonicotinoylhydrazono)methyl)phenyl quinoline-8-sulfonate [SIH13]”, the “MIC katG +” value in assay [1] is 12.5 µM. Moreover, the “% Inhibition of InhA” value in assay [3] (50 µM) is reported as 22%. In addition, in assay [2], the “MIC inhA +” value is 3.12 µM.
As to `NNC(=O)c1ccncc1` [Isoniazid, isonicotinic acid hydrazide, reference compound], the “MIC katG +” value in assay [1] is 6.25 µM. For the same molecule, the “MIC inhA +” value in assay [2] was determined as 1.56 µM.
